molecular target: T1, COX-2 (Homo sapiens, UniProt P35354); test: cell-based; conditions: Table IV; CHO[hCOX-2] cells, 10 μM AA
T1 sequence (P35354 18-604): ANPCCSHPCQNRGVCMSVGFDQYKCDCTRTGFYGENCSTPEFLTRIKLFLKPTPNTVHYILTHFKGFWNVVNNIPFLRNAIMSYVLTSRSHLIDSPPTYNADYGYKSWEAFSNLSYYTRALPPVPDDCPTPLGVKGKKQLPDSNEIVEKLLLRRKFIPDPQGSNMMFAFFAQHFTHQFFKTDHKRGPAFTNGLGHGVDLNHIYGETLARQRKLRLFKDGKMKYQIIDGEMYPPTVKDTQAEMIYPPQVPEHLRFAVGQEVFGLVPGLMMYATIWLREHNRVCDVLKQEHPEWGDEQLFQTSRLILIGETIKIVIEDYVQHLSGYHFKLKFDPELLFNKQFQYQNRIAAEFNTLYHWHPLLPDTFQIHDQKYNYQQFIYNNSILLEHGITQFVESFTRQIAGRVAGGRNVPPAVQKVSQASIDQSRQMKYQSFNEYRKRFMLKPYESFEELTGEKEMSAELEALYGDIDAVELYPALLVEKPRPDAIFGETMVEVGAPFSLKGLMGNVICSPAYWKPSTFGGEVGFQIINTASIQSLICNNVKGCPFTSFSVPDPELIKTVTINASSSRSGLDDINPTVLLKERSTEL
Procedure: Chinese hamster ovary (CHO) cell lines which have been stably transfected with an eukaryotic expression vector pCDNAIII containing either the human COX-1 or COX-2 cDNA's are used for the assay. These cell lines are referred to as CHO [hCOX-1] and CHO [hCOX-2], respectively. […] Cells (0.3×10^6 cells in 200 μl) are preincubated with 3 μl of the test drug or DMSO vehicle for 15 min at 37° C. […] Cells are then challenged in the presence or absence of drug with the AA/HBSS solution to yield a final concentration of 0.5 μM AA in the CHO[hCOX-1] assay and a final concentration of 10 μM AA in the CHO[hCOX-2] assay. […] The samples are centrifuged at 300×g at 4° C. for 10 min, and an aliquot of the clarified supernatant is appropriately diluted for the determination of PGE2 levels using an enzyme-linked immunoassay for PGE2 (Correlate PGE2 enzyme immunoassay kit, Assay Designs, Inc.). Cyclooxygenase activity in the absence of test compounds is determined as the difference in PGE2 levels of cells challenged with arachidonic acid versus the PGE2 levels in cells mock-challenged with ethanol vehicle. Inhibition of PGE2 synthesis by test compounds is calculated as a percentage of the activity in the presence of drug versus the activity in the positive control samples.

First: CC1(C)OC(=O)C(Oc2cccc(C(F)(F)F)c2)=C1c1ccc(S(C)(=O)=O)cc1 [Example 110]
Second: CC1(C)OC(=O)C(Oc2ccc(C(C)(C)O)cc2)=C1c1ccc(S(C)(=O)=O)cc1 [Example 191]
The IC50 of the first is higher: > 5 µM for the first, 0.98 µM for the second.

Molecule `Cc1ncc(OC2=C(c3ccc(S(C)(=O)=O)cc3)C(C)(C)OC2=O)cc1Br` [Example 137] has an IC50 of 0.55 µM.

molecular target: T1, COX-2; test: cell-based; conditions: Table IV; human whole blood, LPS-induced PGE2; read-out: COX-2 (IC50, μM) HWB
Description: (§1) As well, platelets in whole blood contain a large amount of the COX-1 enzyme. Immediately following blood clotting, platelets are activated through a thrombin-mediated mechanism. […] Therefore, the degree of selectivity by the test compound can be determined by measuring the levels of PGE2 after LPS induction (COX-2) and TxB2 following blood clotting (COX-1) in the same assay.
A. COX-2 (LPS-induced PGF, production)
Fresh blood is collected in heparinized tubes by venipuncture from both male and female volunteers. The subjects have no apparent inflammatory conditions and have not taken any NSAIDs for at least 7 days prior to blood collection. Plasma is immediately obtained from a 2 mL blood aliquot to use as blank (basal levels of PGE2).

Going from `C[C@]1(CC(F)(F)F)OC(=O)C(Oc2ccc(Cl)cn2)=C1c1ccc(S(C)(=O)=O)cc1` [Example 130, (5R)-3-(5-Chloro-2-pyridyloxy)-5-methyl-4-(4-methylsulfonyl)phenyl-5-(2,2,2-trifluoroethyl)-5H-furan-2-one] to `Cc1ncc(OC2=C(c3ccc(S(C)(=O)=O)cc3)C(C)(C)OC2=O)cc1Br` [Example 137], the IC50 rises from < 0.41 µM to 5.2 µM. The first is the more potent here.

Going from `CC1(COC2=C(c3ccc(S(C)(=O)=O)cc3)C(C)(C)OC2=O)CC1` [Example 173] to `CC1(C)OC(=O)C(Oc2ccc(C(C)(C)O)cc2)=C1c1ccc(S(C)(=O)=O)cc1` [Example 191], the IC50 rises from < 0.41 µM to 4.3 µM.

molecular target: T2, COX-1 (Homo sapiens, UniProt P23219); test: biochemical; assay type: biochemical; conditions: Table III; U937
Procedure: Compounds are tested as inhibitors of cyclooxygenase activity in whole cell cyclooxygenase assays. Both of these assays measure prostaglandin E2 synthesis in response to arachidonic acid, using a radioimmunoassay. Cells used for these assays are human osteosarcoma 143 cells (which specifically express COX-2) and human U-937 cells (which specifically express COX-1). In these assays, 100% activity is defined as the difference between prostaglandin E2 synthesis in the absence and presence of arachidonate.
U 937 cells are pelleted by centrifugation at 500×g for 5 min and washed once with phosphate-buffered saline and repelleted. Cells are resuspended in homogenization buffer consisting of 0.1 M Tris-HCl, pH 7.4, 10 mM EDTA, 2 μg/ml leupeptin, 2 μg/ml soybean trypsin inhibitor, 2 μg/ml aprotinin and 1 mM phenyl methyl sulfonyl fluoride. The cell suspension is sonicated 4 times for 10 sec and is centrifuged at 10,000×g for 10 min at 4° C. The supernatant is centrifuged at 100,000×g for 1 hr at 4 ° C. The 100,000×g microsomal pellet is resuspended in 0.1 M Tris-HCl, pH 7.4, 10 mM EDTA to approximately 7 mg protein/ml and stored at -80° C.
Microsomal preparations are thawed immediately prior to use, subjected to a brief sonication, and then diluted to a protein concentration of 125 μg/ml in 0.1 M Tris-HCl buffer, pH 7.4 containing 10 mM EDTA, 0.5 mM phenol, 1 mM reduced glutathione and 1 μM hematin. Assays are performed in duplicate in a final volume of 250 μl. Initially, 5 μd of DMSO vehicle or drug in DMSO are added to 20 μl of 0.1 M Tris-HCl buffer, pH 7.4 containing 10 mM EDTA in wells of a 96-deepwell polypropylene titre plate. 200 μl of the microsomal preparation are then added and pre-incubated for 15 min at room temperature before addition of 25 μl of […] in 0.1 M Tris-HCl and 10 mM EDTA, pH 7.4. […] Cyclooxygenase activity is defined as the difference between PGE2 levels in samples incubated in the presence of arachidonic acid and ethanol vehicle.

T2 sequence (P23219 24-599): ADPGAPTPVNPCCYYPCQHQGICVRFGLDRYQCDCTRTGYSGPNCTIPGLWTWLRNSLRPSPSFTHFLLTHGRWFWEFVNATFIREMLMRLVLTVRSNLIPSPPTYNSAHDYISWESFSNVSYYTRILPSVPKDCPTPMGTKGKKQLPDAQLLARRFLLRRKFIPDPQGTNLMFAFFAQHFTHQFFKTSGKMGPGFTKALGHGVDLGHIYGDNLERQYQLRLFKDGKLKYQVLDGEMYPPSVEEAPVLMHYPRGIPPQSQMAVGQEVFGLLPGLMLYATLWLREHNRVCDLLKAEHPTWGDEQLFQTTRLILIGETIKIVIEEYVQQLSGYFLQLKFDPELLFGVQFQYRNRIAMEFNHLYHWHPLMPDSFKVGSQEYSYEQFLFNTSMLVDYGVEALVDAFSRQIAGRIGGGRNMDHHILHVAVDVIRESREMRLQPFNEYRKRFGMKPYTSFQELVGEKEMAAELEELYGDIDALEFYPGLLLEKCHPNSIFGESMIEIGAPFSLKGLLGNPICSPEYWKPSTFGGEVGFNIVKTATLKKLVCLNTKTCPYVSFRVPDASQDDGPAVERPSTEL

Going from `CC1(C)OC(=O)C(Oc2cccc(F)c2)=C1c1ccc(S(C)(=O)=O)cc1` [Example 2, 3-(3-Fluorophenoxy)-5,5-dimethyl-4-(4-(methylsulfonyl)phenyl)-5H-furan-2-one] to `CC1(C)OC(=O)C(Oc2ccc(F)cc2)=C1c1ccc(S(C)(=O)=O)cc1` [Example 8, 3-(4-Fluorophenoxy)-5,5-dimethyl-4-(4-(methylsulfonyl)phenyl)-5H-furan-2-one], the IC50 falls from 3 µM to 0.3 µM (10-fold).

Going from `CC1(C)OC(=O)C(Oc2ccc(F)cc2F)=C1c1ccc(S(C)(=O)=O)cc1` [Example 5, 3-(2,4-Difluorophenoxy)-5,5-dimethyl-4-(4-(methylsulfonyl)phenyl)-5H-furan-2-one] to `CC1(C)OC(=O)C(Oc2ccc(Cl)c(Cl)c2)=C1c1ccc(S(C)(=O)=O)cc1` [Example 7, 3-(3,4-Dichlorophenoxy)-5,5-dimethyl-4-(4-(methylsulfonyl)phenyl)-5H-furan-2-one], the IC50 rises from 0.3 µM to 1 µM (3.3-fold). The first is the more potent here.

First: CC1(C)OC(=O)C(Oc2ccc(Cl)cc2)=C1c1ccc(S(C)(=O)=O)cc1 [Example 6, 3-(4-Chlorophenoxy)-5,5-dimethyl-4-(4-(methylsulfonyl)phenyl)-5H-furan-2-one]
Second: Cc1cccc(OC2=C(c3ccc(S(C)(=O)=O)cc3)C(C)(C)OC2=O)n1 [Example 27, 3-(6-Methyl-2-pyridyloxy)-5,5-dimethyl-4-(4-(methylsulfonyl)phenyl)-5H-furan-2-one]
The IC50 of the first is lower: 0.4 µM for the first, > 10 µM for the second.

`CC1(C)OC(=O)C(Sc2ccc(F)cc2)=C1c1ccc(S(C)(=O)=O)cc1` [Example 9, 3-(4-Fluorophenylthio)-5,5-dimethyl-4-(4-(methylsulfonyl)phenyl)-5H-furan-2-one] and `CC1(C)OC(=O)C(Cc2ccc(F)cc2)=C1c1ccc(S(C)(=O)=O)cc1` [Example 23, 3-(4-Fluorobenzyl)-5,5-dimethyl-4-(4-(methylsulfonyl)phenyl)-5H-furan-2-one] cannot be ordered by IC50: > 10 µM for the first, > 30 µM for the second.

`CC1(C)OC(=O)C(Sc2cc(F)cc(F)c2)=C1c1ccc(S(C)(=O)=O)cc1` [Example 10, 3-(3,5-Difluorophenylthio)-5,5-dimethyl-4-(4-(methylsulfonyl)phenyl)-5H-furan-2-one] and `CC1(C)OC(=O)C(C(O)c2ccc(F)c(F)c2)=C1c1ccc(S(C)(=O)=O)cc1` (stereo not drawn) [Example 17, 3-(3,4-Difluorophenylhydroxymethyl)-5,5-dimethyl-4-(4-(methylsulfonyl)phenyl)-5H-furan-2-one] cannot be ordered by IC50: > 10 µM for the first, > 10 µM for the second.

`CC1(C)OC(=O)C(Nc2ccccc2)=C1c1ccc(S(C)(=O)=O)cc1` [Example 12, 3-(N-Phenylamino)-5,5-dimethyl-4-(4-(methylsulfonyl)phenyl)-5H-furan-2-one] and `CC1(C)OC(=O)C(Cc2ccccc2)=C1c1ccc(S(C)(=O)=O)cc1` [Example 16, 3-Benzyl-5,5-dimethyl-4-(4-(methylsulfonyl)phenyl)-5H-furan-2-one] cannot be ordered by IC50: > 10 µM for the first, > 10 µM for the second.

`CN(C1=C(c2ccc(S(C)(=O)=O)cc2)C(C)(C)OC1=O)c1ccccc1` [Example 13, 3-(N-Methyl-N-phenylamino)-5,5-dimethyl-4-(4-(methylsulfonyl)phenyl)-5H-furan-2-one] and `CC1(C)OC(=O)C(C(=O)c2ccccc2)=C1c1ccc(S(C)(=O)=O)cc1` [Example 19b, 3-Benzoyl-5,5-dimethyl-4-(4-(methylsulfonyl)phenyl)-5H-furan-2-one] cannot be ordered by IC50: > 10 µM for the first, > 10 µM for the second.

Going from `CC1(C)OC(=O)C(C(=O)c2ccc(F)c(F)c2)=C1c1ccc(S(C)(=O)=O)cc1` [Example 18, 3-(3,4-Difluorobenzoyl)-5,5-dimethyl-4-(4-(methylsulfonyl)phenyl)-5H-furan-2-one] to `CC1(C)OC(=O)C(Oc2ccccn2)=C1c1ccc(S(C)(=O)=O)cc1` [Example 26, 3-(2-pyridyloxy)-5,5-dimethyl-4-(4-(methylsulfonyl)phenyl)-5H-furan-2-one], the IC50 falls from > 30 µM to ~10 µM. The second is the more potent here.

Compared with `CS(=O)(=O)c1ccc(C2=C(Oc3ccccc3)C(=O)OC23CCCC3)cc1` [Example 20, 4-(4-(Methylsulfonyl)phenyl)-3-phenoxy-1-oxaspiro[4.4]non-3-en-2-one], `CS(=O)(=O)c1ccc(C2=C(Sc3ccccc3)C(=O)OC23CCCC3)cc1` [Example 21, 4-(4-(Methylsulfonyl)phenyl)-3-phenylthio-1-oxaspiro[4.4]non-3-en-2-one] is higher in IC50: 0.3 µM for the first, > 10 µM for the second. The first is the more potent here.

For `NS(=O)(=O)c1ccc(C2=C(Sc3ccccc3)C(=O)OC23CCCC3)cc1` [Example 22, 4-(2-Oxo-3-phenylthio-1-oxa-spiro[4,4]non-3-en-4-yl)benzene-sulfonamide], the IC50 was > 1 µM.

molecular target: T2, COX-1; test: Human whole blood assay, COX-1 (clotting-induced TxB2 production); assay type: cell-based; conditions: Table III, read-out: COX-1 (IC50) HWB
Description: as §1
B. COX-1 (Clotting-induced TxB2 production)
Fresh blood is collected into vacutainers containing no anticoagulants. Aliquots of 500 μL are immediately transferred to siliconized microcentrifuge tubes preloaded with 2 μL of either DMSO or a test compound at final concentrations varying from 10 nM to 30 μM. The tubes are vortexed and incubated at 37° C. for 1 hour to allow blood to clot. At the end of incubation, serum is obtained by centrifugation (12,000×g for 5 min.). A 100 μL aliquot of serum is mixed with 400 μL of methanol for protein precipitation.

Work on `CC1(C)OC(=O)C(Oc2cc(F)cc(F)c2)=C1c1ccc(S(C)(=O)=O)cc1` [Example 3, 3-(3,5-Difluorophenoxy)-5,5-dimethyl-4-(4-(methylsulfonyl)phenyl)-5H-furan-2-one] yielded an IC50 of 6.1 µM.
